test system: Plasmodium falciparum; test: GSK_TCMDC: Inhibition of Plasmodium falciparum 3D7 in whole erythrocytes, using parasite LDH activity as an index of growth.; assay type: functional, organism-based; conditions: Plasmodium falciparum, 3D7

| SMILES | XC50 [nM] |
| --- | --- |
| O=C(Cc1ccc([N+](=O)[O-])cc1)N1CCc2cc3nccc(N4CCN5CCC[C@@H]5C4)c3cc21 | 843 |
| CCCCOc1ccccc1C(=O)NCc1csc(-c2ccccc2)n1 | 556 |
| CCCc1cc(NCC)nc(Nc2ccc(F)cc2)n1 | 1030 |
| COc1cccc(Nc2nc(NCCO)c3ccccc3n2)c1 | 151 |
| C=C(C)C1CC=C(CN2CCCC(n3ccc4cc(NC(=O)c5ccco5)ccc43)CC2)CC1 (stereo not given) | 753 |
| CCc1cc(-c2onc(C)c2-c2cc3ccccc3o2)c(O)cc1OC | 969 |
| CCCCCCNC(=O)C1Cc2c([nH]c3ccccc23)C2(CCN(CCc3ccccc3)CC2)N1 (stereo not given) | 1140 |
| CN(C1CCC(NC(=O)/C=C/c2ccccc2)CC1)C1CC2(CCN(C(=O)OC(C)(C)C)CC2)c2ccccc21 (stereo not given) | 822 |
| CCc1c(C)c2ccc3c(c2oc1=O)CN(CCc1ccc(F)cc1)CO3 | 1230 |
| CCCC1N=C(N)N=C(N)N1c1ccc(Cl)cc1 (stereo not given) | 46.7 |
| CCOC(=O)CCCCCNC[C@H](O)c1ccccc1 | 328 |
| COc1ccc2nccc([C@@H](O)CN3CCC(NCc4cc5ccc(Cl)cc5[nH]4)CC3)c2c1 | 121 |
| CC(=O)c1ccc(NC(=O)NNC(=O)c2ccc(CCN3CCC(c4nc(COCC(F)(F)F)c(-c5ccc(F)cc5)o4)CC3)cc2)cc1 | 835 |
| COc1ccccc1C1CCN(C2CCC(NC(=O)/C=C/c3cc(F)cc(C(F)(F)F)c3)CC2)CC1 (stereo not given) | 901 |
| Cc1cccc2nc(-c3ccc(-c4cccc(CNCC5CCCO5)c4)cc3)[nH]c12 (stereo not given) | 700 |
| CC(Cc1ccc(OCCN2CCN(c3ccc(Cl)cc3)CC2)cc1)NCC(O)c1cccc(C(F)(F)F)c1 (stereo not given) | 807 |
| N#Cc1ccc(-c2ccc(C(=O)NCCCCN3CCC(c4ccc5c(c4OCc4ccccn4)CCCC5)CC3)cc2)cc1 | 824 |
| CNc1ccc(CNCc2cccc(-c3ccc(-c4nc5cccc(C)c5[nH]4)cc3)c2)cc1 | 660 |
| CCN(CCCN1CCCCC1)c1cc(C)nc(Nc2ccc(Cl)cc2C)n1 | 729 |
| CC[C@H]1CN2CC[C@H]1C[C@H]2[C@H](O)c1cc(-c2ccc(SC)cc2)nc2ccc(OC)cc12 | 64.1 |
| O=C1CSc2ccc(CNC3CCN(CCc4c(Cl)cnc5ccc(Cl)cc45)CC3)nc2N1 | 229 |
| CCOC(=O)c1nc(-c2cccc(F)c2)[nH]c1N | 748 |
| COc1ccccc1CCN(C)CCN1CCC(NC(=O)c2ccc(-c3ccc(C(F)(F)F)cc3)cc2)CC1 | 1030 |
| CC(C)(C)CC(C)(C)c1ccc(O)c(C(=O)Nc2ccc([N+](=O)[O-])cc2)c1 | 774 |

| SMILES | XC50 [nM] |
| --- | --- |
| CCNc1cc(C(=O)N[C@@H](Cc2ccccc2)[C@H](O)CNC(C)(C)CSCC(C)C)cc(N2CCCC2=O)c1 | 260 |
| COc1cccc(CN2CCCN(Cc3cccc(NC(=O)c4ccc(-c5ccccc5)cc4)c3)CC2)c1 | 244 |
| CN1CCN(c2ncnc3ccc(NC(=O)Nc4ccc(Cl)c(Cl)c4)cc23)CC1 | 264 |
| CCNc1cc(C(=O)N[C@@H](Cc2ccccc2)[C@H](O)CNC(C)(C)CCCC(C)C)cc(N2CCCCS2(=O)=O)c1 | 446 |
| Cc1ccc(S(=O)(=O)n2cc(-c3ccnc(N)c3)c3cc(Br)cnc32)cc1 | 896 |
| O=C(Nc1cccc(F)c1)c1ccc(C(=O)NC2CCN(CC3CCCCC3)C2)cc1 (stereo not given) | 929 |
| N#Cc1ccc(-c2ccc(C(=O)NCCCCN3CCC(c4ccncc4)CC3)cc2)cc1 | 813 |
| CS(=O)(=O)CCNCc1cccc(-c2cc3nccc(Nc4ccc(Oc5ccccc5)cc4)c3cc2Cl)c1 | 625 |
| C[C@H](NC(=O)C1CCCC1)C(=O)Nc1ccc(-c2ccc(-c3nc4cc(C(F)(F)F)ccc4[nH]3)cc2)cc1 | 272 |
| Cc1ccc2[nH]c(C)cc(=NN=Cc3ccccc3F)c2c1 | 171 |
| O=C(/C=C/c1ccc(Cl)c(Cl)c1)NCCCCCN1CCCN(C(=O)Nc2ccc(OC(F)F)cc2)CC1 | 833 |
| Clc1cccc(Nc2ccc3c(N4CCCCC4)ncnc3n2)c1 | 577 |
| CN(C)C(S)=NN=Cc1cccc(O)c1O | 872 |
| COc1ccc(C[C@@H](C)NC[C@H](O)c2cccc(Cl)c2)cc1F | 867 |
| CCCCCCOc1ccc(C(=O)NCCCC2CCCN(CCCCCNC(=O)C=Cc3ccc(Cl)c(Cl)c3)C2)cc1 (stereo not given) | 703 |
| CN(C)c1ccnc2ccc(NC(=O)Nc3ccnc4ccccc34)cc12 | 133 |
| Cc1cnc(N2CCN(CC3CCN(C)CC3)CC2)nc1Oc1ccc(-n2ccnc2)cc1 | 725 |
| CNc1ccc(CNCc2cccc(-c3ccc(-c4nc5cc(C(F)(F)F)ccc5[nH]4)cc3)c2)cc1 | 112 |
| CCCCn1c(Sc2ccc(C#N)c([N+](=O)[O-])c2)nnc1-c1cc(OC)cc(OC)c1 | 824 |
| Fc1ccc2[nH]c(-c3cccc(-c4cccc(CNCCN5CCNCC5)c4)c3)nc2c1 | 842 |
| COc1cc(C=Cc2ccc3ccccc3n2)cc(Br)c1OCC(=O)N(C)C | 1100 |
| Cc1cnn(-c2cccc(C(=O)NC3CCC(CCN4CCc5ccc(C#N)cc5CC4)CC3)c2)c1 (stereo not given) | 932 |
| CSC1=NC(C)(C)CC2(CC(c3cccc(C)c3)c3cc(Cl)c(O)cc3O2)N1 (stereo not given) | 879 |
| CS(=O)(=O)c1ccc(CNCc2cccc(-c3cccc(-c4nc5ccccc5[nH]4)c3)c2)cc1 | 590 |

| SMILES | XC50 [nM] |
| --- | --- |
| CCS(=O)(=O)N1CCN(c2nc(-c3ccccc3)nc(COC)c2Cc2ccccc2F)CC1 | 1450 |
| CS(=O)(=O)c1ccc(CNCc2ccc(-c3cccc(-c4nc5cc(C(F)(F)F)ccc5[nH]4)c3)cc2)cc1 | 138 |
| O=C(NCC1CCN(C/C=C/c2ccccc2)CC1)Nc1ccc(Oc2ccccc2)cc1 | 1040 |
| O=c1n[n+](C2CCCCC2)[n-]o1 | 934 |
| Cc1nc(C)c(-c2ccc(Cl)cc2)c(O)c1I | 674 |
| OCC1CCN(Cc2ccc(-c3cccc(-c4nc5ccccc5[nH]4)c3)cc2)CC1 | 813 |
| CCNc1cc(C(=O)N[C@@H](Cc2ccccc2)[C@H](O)CNC(CC)c2cccc(Cl)c2)cc(N2CCCC2=O)c1 (stereo not given in full) | 31.6 |
| CCCCN(CCCC)CCC(O)C(=Cc1ccc(Cl)cc1Cl)c1ccc(C(F)(F)F)cc1N (stereo not given) | 193 |
| COc1ccccc1NC(=O)Nc1ccc(-c2ccc(-c3nc4cccc(C)c4[nH]3)s2)cc1 | 158 |
| CC(=O)Nc1ccc(CN2CCCN(c3cc(NC(=O)c4cccc(C)c4)ccn3)CC2)cc1 | 863 |
| CCc1cn(CCOC)c2ccc(C(=O)N[C@@H](Cc3ccccc3)[C@H](O)CNC(C)(C)CCCC(C)C)cc12 | 569 |
| Oc1cc2c(cc1CN1CCN(Cc3ccccc3)CC1)CCC2 | 721 |
| O=C(/C=C/c1ccc(Cl)c(Cl)c1)NCCCCCCN1CCN(C(=O)Nc2ccc(Cl)c(C(F)(F)F)c2)CC1 | 526 |
| COc1cccc(CN2CCCN(Cc3cccc(NC(=O)c4ccc(Cl)c(Cl)c4)c3)CC2)c1 | 1460 |
| N=C(N)Nc1ccc(NC(=O)Nc2ccc(NC(=N)N)cc2)cc1 | 386 |
| N#Cc1cccc(NC(=O)Nc2cccc(-c3cccc(-c4nc5cc(C(F)(F)F)ccc5[nH]4)c3)c2)c1 | 224 |
| COc1ccc(CNC2CCN(C)CC2)cc1-c1ccc(S(=O)(=O)NCc2ccccc2)s1 | 230 |
| Cc1c(C)c2c(c(C)c1O)CC[C@](C)(C(=O)N1CCC(CCN3CCC(c4c[nH]c5ccccc45)CC3)CC1)O2 | 834 |
| N=C(N)NC(=O)Nc1ccc(Cl)c(Cl)c1 | 1040 |
| Cc1[nH]c(C)c(-c2ccc(OCc3ccc(OC(F)(F)F)cc3)nc2)c(=O)c1Br | 140 |
| Cn1nc(C(F)(F)F)c(-c2ccc(Br)cc2)c1NC(=O)Nc1ccc(F)cc1F | 793 |
| Cc1cccc2nc(-c3ccc(-c4cccc(CNCCc5ccncc5)c4)cc3)[nH]c12 | 204 |
| Cc1noc(C)c1-c1ccc2c(Nc3cccc4c3-c3ccccc3C4=O)c(C(=O)NCc3ccccc3I)cnc2c1 | 627 |
| Fc1ccc2c(NN=Cc3ccc(Cl)cc3)ccnc2c1 | 754 |

| SMILES | XC50 [nM] |
| --- | --- |
| COc1ccc(CN(C)CCCc2ccc(NC(=O)c3cc4ccccc4[nH]3)cc2)cc1OC | 725 |
| Cc1cc(NC(=O)NCCN2CCC(NS(=O)(=O)c3cccc(Br)c3)C2)c2ccccc2n1 (stereo not given) | 606 |
| CCn1ccc2c(N3CCCS3(=O)=O)cc(C(=O)N[C@@H](Cc3ccccc3)[C@H](O)CNC(C)(C)CCCC(C)C)cc21 | 491 |
| Fc1ccc(NC(=S)NCCc2ccccc2)cc1 | 781 |
| Cc1nc(N)nc(N)c1-c1ccc(Br)c([N+](=O)[O-])c1 | 201 |
| O=C(CCCCCc1ccccc1)NC1CCC(CN2CCC(c3c[nH]c4ccccc34)CC2)CC1 (stereo not given) | 1140 |
| COc1ccc2nccc([C@@H](O)CN3CCC(NC(=O)C(c4cc5ccccc5o4)N4CCN(c5ccccc5)CC4)CC3)c2c1 (stereo not given in full) | 238 |
| O=C(CSc1nnc(O)n1Cc1ccccc1)Nc1ccccc1-c1ccccc1 | 953 |
| CN(c1ccc2c(c1)nc(Nc1cc(C(C)(C)C)on1)n2C)c1ccnc(Nc2ccc(CS(C)(=O)=O)cc2)n1 | 900 |
| CN(C)CCCOC(=O)c1cc2cc(-c3ccccc3)ccc2n1S(=O)(=O)Cc1ccccc1 | 361 |
| Cc1cc(N2CCCC2)nc(Nc2ccc(NC(=O)C3CCCC3)cc2)n1 | 1110 |
| CCS[C@@H]1O[C@H](COC(=O)c2ccccc2)[C@H](OC(=O)c2ccccc2)[C@H](OC(=O)c2ccccc2)[C@H]1OC(=O)c1ccccc1 | 808 |
| Cn1cncc1C(=O)Nc1cccc(-c2cccc(-c3nc4cc(C(F)(F)F)ccc4[nH]3)c2)c1 | 205 |
| COc1ccc2nccc([C@@H](O)CN3CCC(NC(=O)/C(=C/c4ccccc4)c4ccc(-c5ccccc5)cc4)CC3)c2c1 | 1050 |
| CN1CCN(c2cccc(-c3nnc(-c4ccc(OCC(=O)NCc5cccc(C(F)(F)F)c5)c([N+](=O)[O-])c4)o3)c2)CC1 | 962 |
| Cc1nc(-c2nc(NCCc3ccncc3)ncc2-c2ccsc2)sc1C | 298 |
| O=C(Nc1ccc(F)cc1F)NC1CCN(c2ccnc3cc(Cl)ccc23)C1 (stereo not given) | 245 |
| Cc1c(F)cc(C(=O)NC2CC2)cc1-c1ccc2c(cnn2S(=O)(=O)c2ccc(F)c(F)c2)c1 | 265 |
| Cc1cccc2nc(-c3ccc(-c4ccc(NC(=O)C5CCN(C)CC5)cc4)cc3)[nH]c12 | 748 |
| NC1=NC2(CCCC2)C(c2ccc(Cl)c(Cl)c2)C(N)=N1 (stereo not given) | 987 |
| O=C(Nc1ccc(-c2ccccc2)cc1)Nc1cccc(Cn2nc(Cl)c(N3CCCNCC3)cc2=O)c1 | 676 |
| N#Cc1cccc(CN(Cc2ccc(Cl)c(Cl)c2)S(=O)(=O)c2cccc([N+](=O)[O-])c2)c1 | 808 |
| CC(Nc1ccnc2cc(Cl)ccc12)c1ccc(S(N)(=O)=O)cc1 (stereo not given) | 933 |
